According to ChEMBL document CHEMBL4823310, “Small Molecule Inhibitors of KRAS G12C Mutant” (ACS Med Chem Lett, 2021):
pIC50: −log10 of the molar value.

Experiments:
[1] = Inhibition of ERK phosphorylation in human NCI-H358 cells incubated for 2 hrs by cellular assay; format: cell-based; settings: NCI-H358, 2 h
GTPase KRas = GTPase KRas (Homo sapiens, UniProt P01116, C118S/C51S/C80L/G12C); experiment: Inhibition of biotinylated KRAS G12C/C51S/C80L/C118S mutant (unknown origin) pretreated for 60 mins followed by recombinant SOS addition by SOS-catalyzed nucleotide exchange-based TR-FRET analysis
Sequence of GTPase KRas (P01116 whole entry G12C/C51S/C80L/C118S): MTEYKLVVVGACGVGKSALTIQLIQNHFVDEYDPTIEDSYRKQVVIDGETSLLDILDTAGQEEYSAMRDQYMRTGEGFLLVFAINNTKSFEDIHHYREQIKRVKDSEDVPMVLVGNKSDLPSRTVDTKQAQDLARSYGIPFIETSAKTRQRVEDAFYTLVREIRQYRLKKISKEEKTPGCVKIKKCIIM

Row | SMILES | pIC50 [1] | pIC50 (GTPase KRas)
1 | [2H]C1([2H])Oc2ccc(F)c(F)c2-c2nc3c(cc2Cl)c(N2C[C@@H](C)N(C(=O)C=C)C[C@@H]2C)nc(=O)n3-c2c(ccnc2C(C)C)OC1([2H])[2H] | 8.21 | 9.29
2 | C=CC(=O)N1C[C@H](C)N(c2nc(=O)n3c4nc(c(F)cc24)-c2c(F)cccc2OCCCc2ccnc(C(C)C)c2-3)C[C@H]1C | 8.06 | 
3 | C=CC(=O)N1C[C@H](C)N(c2nc(=O)n3c4nc(c(Cl)cc24)-c2c(ccc(F)c2F)OCCCc2ncnc(C(C)C)c2-3)C[C@H]1C | 8.44 | 
4 | C=CC(=O)N1CCN(c2nc(=O)n3c4nc(c(F)cc24)-c2c(F)cccc2OCCCc2ccnc(C(C)C)c2-3)[C@@H](C)C1 | 8.17 | 8.37
5 | C=CC(=O)N1C[C@H](C)N(c2nc(=O)n3c4nc(c(F)cc24)-c2c(Cl)cccc2OCCCc2ccnc(C(C)C)c2-3)C[C@H]1C | 8.44 | 
6 | C=CC(=O)N1C[C@H](C)N(c2nc(=O)n3c4nc(c(Cl)cc24)-c2c(F)cccc2OCCc2ccnc(C(C)C)c2-3)C[C@H]1C | 8.29 | 8.59
7 | C=CC(=O)N1C[C@H](C)N(c2nc(=O)n3c4nc(c(F)cc24)-c2c(ccc(F)c2F)OCCC(C)c2ccnc(C(C)C)c2-3)C[C@H]1C (stereo partly drawn) | 8.17 | 
8 | C=CC(=O)N1C[C@H](C)N(c2nc(=O)n3c4nc(c(F)cc24)-c2c(F)cccc2OCCCCc2ccnc(C(C)C)c2-3)C[C@H]1C | 8.66 | 
9 | C=CC(=O)N1C[C@H](C)N(c2nc(=O)n3c4nc(c(Cl)cc24)-c2c(F)ccc(F)c2OCCOc2ccnc(C(C)C)c2-3)C[C@H]1C | 8.36 | 8.96
10 | C=CC(=O)N1C[C@H](C)N(c2nc(=O)n3c4nc(c(Cl)cc24)-c2c(F)cccc2OCC(F)(F)COc2ccnc(C(C)C)c2-3)C[C@H]1C | 8.21 | 
11 | C=CC(=O)N1CCN(c2nc(=O)n3c4nc(c(Cl)cc24)-c2c(F)cccc2OCC(F)(F)CCc2ccnc(C(C)C)c2-3)[C@@H](C)C1 | 8.52 | 9.25
12 | C=CC(=O)N1CCN(c2nc(=O)n3c4nc(c(F)cc24)-c2c(F)cccc2OCCCCc2ccnc(C(C)C)c2-3)[C@@H](C)C1 | 8.82 | 8.62
